Type in all cases: cell-based
Assay [1] has as its target T1, Sodium-dependent dopamine transporter (Homo sapiens, UniProt Q01959). As to the kind of experiment: Displacement of [3H]WIN-35428 from human dopamine transporter expressed in mouse N2A cells by scintillation counting. Background: Loss of bound radioactivity is the signal in a displacement assay; it reports binding, not function.
Assay [2] has as its target T1, Sodium-dependent dopamine transporter. As to the kind of experiment: Inhibition of [3H]dopamine uptake at human dopamine transporter expressed in mouse N2A cells by scintillation counting.
The target of assay [3] is Sodium-dependent dopamine transporter (Rattus norvegicus) (UniProt P23977). As to the kind of experiment: Binding affinity to rat dopamine transporter expressed in pig LLC-PK1 cells assessed as drug incorporation at 30 nM after 1 hr by SDS-PAGE analysis. As to conditions: tested as the 125I-labelled form.
Assay [4] has the same target. Kind of assay: Binding affinity to rat dopamine transporter expressed in pig LLC-PK1 cells assessed as drug incorporation at 30 nM after 1 hr by SDS-PAGE analysis in presence of cocaine. Conditions: tested as the 125I-labelled form.

For orientation: Ki means the dissociation constant of the complex between target and ligand, obtained from inhibition or displacement. A low value points to higher affinity. What is called IC50 is the concentration needed to halve the response being measured.

Each structure is given as a SMILES string. Active and inactive are the calls of the source. No cut-off for these calls is given here.

T1 sequence (Q01959 whole entry): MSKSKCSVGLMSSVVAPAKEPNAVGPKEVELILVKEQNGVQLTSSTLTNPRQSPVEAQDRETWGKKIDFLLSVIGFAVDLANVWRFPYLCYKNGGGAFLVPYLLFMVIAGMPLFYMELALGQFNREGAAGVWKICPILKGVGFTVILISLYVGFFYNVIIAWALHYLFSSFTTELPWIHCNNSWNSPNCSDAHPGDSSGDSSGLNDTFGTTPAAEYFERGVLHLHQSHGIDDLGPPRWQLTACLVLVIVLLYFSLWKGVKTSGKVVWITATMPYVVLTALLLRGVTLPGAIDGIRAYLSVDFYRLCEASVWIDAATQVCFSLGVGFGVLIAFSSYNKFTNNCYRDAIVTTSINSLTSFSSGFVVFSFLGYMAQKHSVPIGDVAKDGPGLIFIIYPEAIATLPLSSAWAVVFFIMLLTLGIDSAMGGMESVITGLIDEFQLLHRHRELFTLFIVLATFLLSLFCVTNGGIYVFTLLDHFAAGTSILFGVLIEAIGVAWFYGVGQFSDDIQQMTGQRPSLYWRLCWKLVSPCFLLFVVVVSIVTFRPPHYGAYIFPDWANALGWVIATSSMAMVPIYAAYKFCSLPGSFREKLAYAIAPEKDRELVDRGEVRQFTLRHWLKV
Sequence of Sodium-dependent dopamine transporter (Rattus norvegicus) (P23977 whole entry): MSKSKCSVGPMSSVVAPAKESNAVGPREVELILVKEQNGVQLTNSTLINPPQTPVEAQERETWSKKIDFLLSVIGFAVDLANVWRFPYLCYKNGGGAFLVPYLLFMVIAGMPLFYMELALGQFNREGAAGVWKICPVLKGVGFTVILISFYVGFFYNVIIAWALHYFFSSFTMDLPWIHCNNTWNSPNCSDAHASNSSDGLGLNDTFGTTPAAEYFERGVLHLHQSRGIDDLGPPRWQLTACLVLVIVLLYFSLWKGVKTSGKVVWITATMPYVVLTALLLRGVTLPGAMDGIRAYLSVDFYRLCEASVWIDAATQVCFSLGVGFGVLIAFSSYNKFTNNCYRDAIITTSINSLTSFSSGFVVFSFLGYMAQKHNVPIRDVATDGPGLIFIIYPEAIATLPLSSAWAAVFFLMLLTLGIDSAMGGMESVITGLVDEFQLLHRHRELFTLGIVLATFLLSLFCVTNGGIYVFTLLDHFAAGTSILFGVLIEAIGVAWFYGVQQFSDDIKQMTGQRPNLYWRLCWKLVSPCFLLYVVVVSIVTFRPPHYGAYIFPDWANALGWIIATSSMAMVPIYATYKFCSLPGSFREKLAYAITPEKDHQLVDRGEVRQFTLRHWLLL

The molecule `CCCC(C(=O)c1ccc(C)cc1)N1CCCC1` (stereo not given) [PYROVALERONE] yielded a Ki in assay [1] of 8 nM. Besides, in assay [2], the IC50 was found to be 32 nM.

Regarding `CCCC(C(=O)c1ccc(N=[N+]=[N-])c(I)c1)N1CCCC1` (stereo not given), in assay [1], the affinity corresponds to a Ki of 78 nM. For the same molecule, the outcome in assay [3] was Active. Also, the result in assay [4] was inactive. In addition, the IC50 in assay [2] was found to be 264 nM.

The molecule `CCCC(C(=O)c1ccc(N)cc1)N1CCCC1` (stereo not given) registered a Ki in assay [1] of 5 nM. In assay [2], this molecule showed an IC50 of 7 nM.

In assay [1], `CCCC(C(=O)c1ccc(N)c(I)c1)N1CCCC1` (stereo not given) gave a Ki of 28 nM. This molecule also came in with an IC50 in assay [2] of 175 nM.

Values taken from ChEMBL document CHEMBL1158432, “A novel photoaffinity ligand for the dopamine transporter based on pyrovalerone” (Bioorg Med Chem, 2009).
